The results in this text go back to PubChem BioAssay AID624491 (Broad Institute, 2012).

This test concerns D54 ERlucT glycosylation luciferase reporter, luminescence, 24 h. Nature of the test: blockers of NLG process in reporter cells – D54 ERlucT cells, luminescence, cherry-picks, dose response (AID 624491).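 Also: signal gain reflects blocked N-linked glycosylation of a luciferase reporter; actives raise luciferase signal so AC26 marks activators of the reporter.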
On to `CC(=O)OC12COC1CC(O)C1(C)C(=O)C(O)C3=C(C)C(O)CC(O)(C(OC(=O)c4ccccc4)C21)C3(C)C` (stereo not given), for which the AC26 is 1120 nM.
Turning to `Nc1nc(=S)c2ncn(C3OC(CO)C(O)C3O)c2[nH]1` (stereo not given), the AC26 was 4980 nM.
The value for `Cc1ccc(-c2nc(N(C)C3CCN(C)CC3)c3ccccc3n2)cc1` was 4000 nM; that for `CC(CCc1ccco1)NC(=O)CCc1nnc2ccc(NCc3ccc(Cl)cc3)nn12` (stereo not given) was 1260 nM.
The value for `COc1cc(OC)c2c(-c3cccc(-c4ccoc4)c3)cc(=O)oc2c1` was 7640 nM; that for `Cn1nc(-c2ccc(Cl)cc2)c2cc(C(=O)NC3CC3)sc21` was 6320 nM.
The value for `COC(=O)[C@@H]1C[C@H]1[C@@H](NP(=O)(c1ccccc1)c1ccccc1)c1ccccc1` was 3650 nM.
`COc1cc(C2c3cc4c(cc3OC(Nc3ccc(C(=O)O)cc3)C2C)OCO4)cc(OC)c1OC` (stereo not given): the AC26 was 10700 nM.
The value for `COc1ccccc1-c1c(C#N)c(N)nc2c1CCc1ccccc1-2` was 592 nM; that for `CSC1=NC(C(Cl)(Cl)Cl)N=C(c2ccccc2)N1` (stereo not given) was 1470 nM.
The value for `COC(=O)c1cc(OC)c(OC)cc1NC(=S)NC(=O)c1ccco1` was 607 nM.
The value for `O=C(Cc1ccc(-c2ccccc2)cc1)NCc1cccnc1` was 12400 nM; that for `CC12CC[C@H]3[C@@H](CCC4(O)C[C@H](O)CCC34/C=N/NC(=O)c3ccccc3[N+](=O)[O-])C1(O)CCC2C1=CC(=O)OC1` (stereo not given in full) was 4280 nM.
As for `COc1cc(C(=O)Nc2cc(C(F)(F)F)ccc2N2CCOCC2)ccc1OCC(=O)N1CCOCC1`, the AC26 is 1820 nM.
The value for `Cc1nc(-c2ccccc2)sc1-c1nc(-c2ccncc2)ncc1S(=O)(=O)c1ccccc1` was 956 nM; that for `C=CCn1cccc(/C=C/C(=O)c2ccc(C(C)(C)C)cc2)c1=S` was 1290 nM; that for `COc1cc(-c2[nH]ncc2CN2CCSCC2)cc(OC)c1OC` was 4790 nM.
The value for `Cc1ccc(C(=O)Nc2cc(S(=O)(=O)N3CCOCC3)ccc2N2CCCC2)cc1` was 1310 nM.
`Cc1cccn2c(=O)c3cc(C(=O)NC4CCCC4)n(C)c3nc12`: the AC26 was 15100 nM.
The value for `Cc1ccc(C(=O)NC(=C(Cl)Cl)S(=O)(=O)c2ccc(C)cc2)cc1` was 2550 nM.
As for `CC(=O)N(C1=C(Cl)C(=O)c2ccccc2C1=O)C1CCCCC1`, the AC26 is 31.1 nM.
The value for `C[C@@]12C(=O)Nc3cc(F)c(F)cc3C(=O)N1[C@H]1c3cc(Cl)ccc3OC[C@@H]1[C@@H]2c1ccccc1` was 789 nM; that for `CCOc1ccc(S(=O)(=O)N2CCN=C2c2ccccc2)cc1` was 3390 nM.
The value for `Cc1nc(N=C(N)N)nc2c(C)cccc12` was 2200 nM; that for `COc1cc2nc(NC(=O)c3ccc(F)cc3Cl)sc(=O)c2cc1OC` was 1900 nM; that for `CCOc1ccc(OCC(=O)N(CCC2=CCCCC2)c2c(N)n(Cc3ccccc3)c(=O)[nH]c2=O)cc1` was 4380 nM.
Regarding `Cc1cc(Cl)ccc1OCCCC(=O)NO`, the AC26 is 2730 nM.
Turning to `Cn1nc(C(F)(F)F)c(/C=N/OC(=O)c2ccccc2Cl)c1SCc1ccc(Cl)cc1`, the AC26 was 3940 nM.
Turning to `COc1cc(-c2nccc3cc4c(cc23)OCO4)cc(OC)c1OC`, the AC26 was 1490 nM.
The value for `O=C1/C(=C\c2ccc(Cl)cc2)CCC1CNc1ccc(Cl)cc1` (stereo not given) was 5490 nM; that for `O=C(NCc1ccccc1Br)c1cccc2c1C(=O)c1ccc(-c3ccc(OC(F)(F)F)cc3)cc1S2(=O)=O` was 4060 nM.
The value for `Cn1c(=O)[nH]c(=O)c2c1nc(NN)n2CCOc1ccccc1` was 2570 nM; that for `COc1ccc(OC)c(Nc2cc3ccccc3c(=O)[nH]2)c1` was 207 nM; that for `CC1(C(=O)NCc2ccc(F)c(F)c2)Cc2c(-c3ccc4c(c3)OCO4)ccnc2O1` (stereo not given) was 6730 nM.
The value for `CN(CCCNC(=O)CCCOc1cc(=O)n(C)c2ccccc12)Cc1ccccc1` was 5230 nM.
Turning to `O=C(/C=C/Sc1ccccc1)c1ccc(Cl)cc1`, the AC26 is 727 nM.
As to `Cc1cc(C)nc(N2Cc3ccccc3C2=N)n1`, the AC26 is 4560 nM.
For the compound `CCc1ccc(OCC(=O)Nc2ccc(-c3cc4ccccc4oc3=O)c(OC)c2)cc1`, the AC26 was 3090 nM.
The value for `Cc1cc(Nc2cc(Cl)cc(Cl)c2)nc(N)n1` was 1280 nM.
The value for `Nc1nc(=S)c2ncn([C@@H]3O[C@H](CO)[C@@H](O)[C@H]3O)c2[nH]1` was 368 nM; that for `COc1cccc(-c2nc(N3CCN(C)CC3)c3ccccc3n2)c1O` was 3610 nM.
The value for `COc1cc(-c2cc3nc(NCCOc4ccccc4)ccn3n2)cc(OC)c1OC` was 2350 nM.
Consider `COc1cc(/C=C/c2onc(C)c2[N+](=O)[O-])cc(OC)c1OC`, for which the AC26 is 864 nM.
The value for `Cc1cc(C)nc(SC2CC(=O)N(c3ccc(C)c(C)c3)C2=O)n1` (stereo not given) was 14300 nM; that for `CCC(Cc1ccccc1)NC(=O)c1ccc2nc(N3CCOCC3)sc2c1` (stereo not given) was 1250 nM.
The value for `COc1cc(NC(=O)c2ccc(-c3c(C)noc3C)c3ccoc23)cc(OC)c1OC` was 3770 nM; that for `COc1ccc(-c2ccnc(-c3ccncc3)n2)cc1` was 1390 nM; that for `CN(C)C(=O)c1cccc(-c2cnc3c(NC=O)cc(-c4ccccc4Cl)cn23)c1` was 6820 nM.
The value for `C=CCOc1ccccc1C(=O)/C=C1/C(=O)Nc2ccccc21` was 3000 nM; that for `CCn1ncc(C2=NOC(C(=O)NCc3ccccc3)C2)c1C` (stereo not given) was 413 nM.
For the compound `CN1/C(=C/C=C(/C#N)C(N)=O)C(C)(C)c2ccccc21`, the AC26 was 55.6 nM.
In the case of `O=C(N/N=C/c1ccco1)c1cc(-c2ccncc2)nc2ccccc12`, the AC26 is 285 nM.
As to `Cc1cc2oc(C(=O)Nc3c(C)n(C)n(-c4ccccc4)c3=O)c(C)c2cc1Cl`, the AC26 was 781 nM.
The value for `N#CC1=C(N)Oc2c(c(=O)sc3ccccc23)C1c1cccnc1` (stereo not given) was 2860 nM; that for `Cc1cc(NCCCn2ccnc2)n2nc(C)c(-c3ccccc3)c2n1` was 1170 nM; that for `COc1ccc(/C=C2\SC(=O)N(CCNC(=O)C3=COCCO3)C2=O)cc1` was 658 nM.
The value for `NC(=O)CC(NC(=O)Cc1ccc(Cl)cc1)c1ccc(NC2CCCC2)c([N+](=O)[O-])c1` (stereo not given) was 1840 nM; that for `c1ccc2c(c1)c1c(c3ccccc32)CN2CCCC2C1` (stereo not given) was 2700 nM; that for `Oc1cccc(Nc2c3ccccc3nc3ccccc23)c1` was 1440 nM.
As to `COCCNC(=S)N1CCc2cc(OC)c(OC)cc2C1c1cccs1` (stereo not given), the AC26 is 455 nM.
The value for `Cc1ccc(O)c(C(=O)C=Cc2ccccc2)c1` was 1210 nM; that for `CN(C)CCNc1ccc2nnn3c4ccc(O)cc4c(=O)c1c23` was 52 nM.
With `CCOC(=O)C1CCN(c2c(N3CCN(Cc4ccccc4)CC3)c(=O)c2=O)CC1`, the AC26 was 1810 nM.
As to `C=CCn1c(O)c(/C=C2/C=CC=N2)c(=O)[nH]c1=O`, the AC26 was 3080 nM.
The value for `Cc1cc(Br)cc2c(C(=O)Nc3c(C)n(C)n(-c4ccccc4)c3=O)cc(-c3cccs3)nc12` was 3650 nM; that for `CC1CCC2(CC1)NC(=O)N(CC(=O)Nc1ccc3c(c1)CCC3)C2=O` (stereo not given) was 826 nM.
For `CCn1c2ccccc2c2cc(/C=N/NC(=O)c3ccc(O)cc3)ccc21`, the AC26 is 2160 nM.
The value for `CCc1ccc(C2c3[nH]c4ccccc4c3CCN2C(=O)c2ccc(=O)n(C)n2)cc1` (stereo not given) was 1330 nM; that for `COc1ccc(C(=O)NCC(c2ccco2)N2CCc3ccccc32)cc1` (stereo not given) was 2300 nM; that for `Cn1c(=O)n(C)c2cc(NS(=O)(=O)c3ccccc3)ccc21` was 3430 nM.
The value for `COc1ccccc1NC(=O)c1cnc(SCC(=O)NCC2CCCO2)n(C)c1=O` (stereo not given) was 1970 nM; that for `COc1ccc2c(c1)CCc1c(C(=O)Nc3cc(C)n(Cc4ccc(Cl)cc4)n3)noc1-2` was 3370 nM; that for `COC(=O)c1cc(=O)n(-c2ccccc2)c(=Nc2ccccc2)s1` was 10800 nM.
The value for `CCOc1ccc(/C=N/NC(=O)c2cc3c(OC)cccc3[nH]2)cc1` was 3800 nM; that for `C=C(C)[C@@]12OC3(c4ccccc4)O[C@@H]1C1[C@@H]4O[C@]4(CO)[C@@H](O)[C@]4(O)C(=O)C(C)=C[C@H]4[C@@]1(O3)[C@H](C)[C@H]2OC(=O)/C=C/C=C/c1ccccc1` (stereo not given in full) was below 1.2 nM.
Regarding `C=CCn1c(SCC(=O)c2[nH]c(C)c(C(=O)OC)c2C)nc2scc(-c3ccc(OC)c(OC)c3)c2c1=O`, the AC26 was 703 nM.
The value for `CC(=O)c1cccc(-c2ccnc3c2CC(C(=O)NCc2ccc(F)c(F)c2)O3)c1` (stereo not given) was 1370 nM; that for `COc1ccc(C=CC(=O)c2ccc3cc(OC)c(OC)cc3c2)cc1OC` was 2860 nM; that for `COc1cc(C2Sc3ccccc3NC3=C2C(=O)OC3)cc(OC)c1OC` (stereo not given) was 12300 nM.
The value for `Cc1nnc2c(NC(C)C)nc3ccccc3n12` was 4090 nM; that for `COc1ccc(CCNc2c3ccccc3nc3ccccc23)cc1OC` was 1040 nM.
The value for `COc1ccccc1-c1cc(C(=O)Nc2cc(C)nn2-c2ccccc2)no1` was 760 nM; that for `FC(F)(F)c1cccc(Sc2nc(-c3ccccc3)nnc2C(F)(F)F)c1` was 2340 nM; that for `CN(C)CCNC(=O)c1cccc2[nH]c(-c3ccncc3)nc12` was 894 nM.
Regarding `Cn1cnc([N+](=O)[O-])c1S(=O)(=O)Oc1ccccc1`, the AC26 is 1420 nM.
On to `OCCCNc1c2ccccc2nc2ccccc12`, for which the AC26 is 467 nM.
The value for `CN(C)c1ccc(/C=C/C(=O)c2ccc(C(C)(C)C)cc2)cc1[N+](=O)[O-]` was 5570 nM; that for `COc1ccc(Cl)cc1NC(=O)CN(C)CC(=O)Nc1cc(OC)c(OC)c(OC)c1` was 10200 nM; that for `Cc1cccc(N2C(=O)N3[C@H](c4ccc(F)cc4)[C@@H]4C(=O)N(C5CCCCC5)C(=O)[C@@H]4[C@]3(Cc3ccccc3)C2=O)c1` was 692 nM.
With `COc1cc(C(=O)Nc2ccc3c(c2)CCN3C(C)=O)cc(OC)c1OC`, the AC26 is 1240 nM.
The value for `COCCCNC(=O)c1ccc(-c2c(C)noc2C)c2ccoc12` was 4060 nM; that for `COC(=O)c1ccc2c(=O)n(Cc3ccco3)c(SCC(=O)Nc3cc(C)on3)nc2c1` was 2190 nM; that for `COc1nc(=O)n(C2C=CC(=O)O2)cc1F` (stereo not given) was 3200 nM.
The value for `CN(/N=C/c1ccc(N(C)C)cc1)C1=NS(=O)(=O)c2ccccc21` was 1610 nM; that for `Cc1[nH][nH]c(=O)c1C(c1ccc(-c2ccc(F)cc2)o1)c1c(C)[nH][nH]c1=O` was 4090 nM.
